What was measured:
[1] = tested on: Microsporum gypseum; test: Activity against fungi, giant colony growth inhibition; type: cell-based; conditions: Sabroud agar, 26°C., 7 to 14 days
Experimental: (§1) 3. Activity against fungi:
(§2) Since aculeacins have no fungicidal activity, fungi are inoculated in Sabroud agar medium containing several concentrations of aculeacins, and incubated at 26°C. 7 to 14 days. 80% growth inhibitory concentrations of aculeacins are measured by the ratio of area of giant colony to that of control without aculeacins.

[2] = tested on: Diaporthe phaseolorum; test: as above; type: cell-based; conditions: Sabroud agar, 26°C., 7 to 14 days
Experimental: as §1, §2

[3] = tested on: Trichophyton asteroides; test: as above; type: cell-based; conditions: Sabroud agar, 26°C., 7 to 14 days
Experimental: as §1, §2

[4] = tested on: Aspergillus fumigatus; test: as above; type: cell-based; conditions: Sabroud agar, 26°C., 7 to 14 days
Experimental: as §1, §2

[5] = tested on: Collectotrichum linicolum; test: as above; type: cell-based; conditions: Sabroud agar, 26°C., 7 to 14 days
Experimental: as §1, §2

[6] = tested on: Trichophyton rubrum; test: as above; type: cell-based; conditions: Sabroud agar, 26°C., 7 to 14 days
Experimental: as §1, §2

[7] = tested on: Cercospora kikuchii; test: as above; type: cell-based; conditions: Sabroud agar, 26°C., 7 to 14 days
Experimental: as §1, §2

[8] = tested on: Glomerella cingulata; test: as above; type: cell-based; conditions: Sabroud agar, 26°C., 7 to 14 days
Experimental: as §1, §2

[9] = tested on: Ascochyta soyaecola; test: as above; type: cell-based; conditions: Sabroud agar, 26°C., 7 to 14 days
Experimental: as §1, §2

[10] = tested on: Fusarium oxysporum f. lini; test: as above; type: cell-based; conditions: Sabroud agar, 26°C., 7 to 14 days
Experimental: as §1, §2

[11] = tested on: Helminthosporium oryzae; test: as above; type: cell-based; conditions: Sabroud agar, 26°C., 7 to 14 days
Experimental: as §1, §2

[12] = tested on: Sclerotium bataticola; test: as above; type: cell-based; conditions: Sabroud agar, 26°C., 7 to 14 days
Experimental: as §1, §2

[13] = tested on: Corynespora cassicola; test: as above; type: cell-based; conditions: Sabroud agar, 26°C., 7 to 14 days
Experimental: as §1, §2

[14] = tested on: Candida albicans; test: Activity against yeasts, minimum inhibitory concentration; type: cell-based; design: unit not given here; conditions: Sabroud agar, 30°C., 48 hours
Experimental: (§3) 2. Activity against yeasts:
(§4) Assay medium: Sabroud agar, at 30°C., for 48 hours.

[15] = tested on: mouse; test: Acute toxicity on mouse, LD50; type: in vivo
Excerpt: 4. Acute toxicity on mouse:
Aculeacins are almost insoluble in water, soluble in 1% sodium carboxy-methyl cellulose (CMC) solution and sodium deoxycholate (DOC). LD50 of aculeacin-A injection prepared by using those additives is as follows: […]

[16] = tested on: Torula utilis; test: Activity against yeasts, minimum inhibitory concentration; type: cell-based; conditions: Sabroud agar, 30°C., 48 hours
Experimental: as §3, §4

[17] = tested on: Candida pseudotropicalis; test: as above; type: cell-based; conditions: Sabroud agar, 30°C., 48 hours
Experimental: as §3, §4

[18] = tested on: Candida tropicalis; test: as above; type: cell-based; conditions: Sabroud agar, 30°C., 48 hours
Experimental: as §3, §4

[19] = tested on: Candida krusei; test: as above; type: cell-based; conditions: Sabroud agar, 30°C., 48 hours
Experimental: as §3, §4

[20] = tested on: Saccharomyces cerevisiae; test: as above; type: cell-based; conditions: Sabroud agar, 30°C., 48 hours
Experimental: as §3, §4

[21] = tested on: Candida quilliermondii; test: as above; type: cell-based; conditions: Sabroud agar, 30°C., 48 hours
Experimental: as §3, §4

[22] = tested on: Candida parakrusei; test: as above; type: cell-based; conditions: Sabroud agar, 30°C., 48 hours
Experimental: as §3, §4

[23] = tested on: Saccharomyces sake; test: as above; type: cell-based; conditions: Sabroud agar, 30°C., 48 hours
Experimental: as §3, §4

[24] = tested on: Cryptococcus neoiormans; test: as above; type: cell-based; conditions: Sabroud agar, 30°C., 48 hours
Experimental: as §3, §4

[25] = tested on: Mycotorula japonica; test: as above; type: cell-based; conditions: Sabroud agar, 30°C., 48 hours
Experimental: as §3, §4

Q: Which results are given for Aculeacin-A?
A: 80% growth inhibitory concentration [1]: 0.008 gamma/ml.; 80% growth inhibitory concentration [2]: 0.01 gamma/ml.; 80% growth inhibitory concentration [3]: 0.004 gamma/ml.; 80% growth inhibitory concentration [4]: 0.5 gamma/ml.; 80% growth inhibitory concentration [5]: 0.4 gamma/ml.; 80% growth inhibitory concentration [6]: 0.006 gamma/ml.; 80% growth inhibitory concentration [7]: 4.0 gamma/ml.; 80% growth inhibitory concentration [8]: 0.06 gamma/ml.; 80% growth inhibitory concentration [9]: 0.08 gamma/ml.; 80% growth inhibitory concentration [10]: 2.0 gamma/ml.; 80% growth inhibitory concentration [11]: 0.008 gamma/ml.; 80% growth inhibitory concentration [12]: 0.08 gamma/ml.; 80% growth inhibitory concentration [13]: 2.0 gamma/ml.; minimum inhibitory concentration ([14]; Candida albicans 1): 0.2; minimum inhibitory concentration ([14]; Candida albicans 2): < 0.1; minimum inhibitory concentration ([14]; Candida albicans 3): < 0.1; minimum inhibitory concentration ([14]; Candida albicans 4): 0.2; minimum inhibitory concentration ([14]; Candida albicans 5): 1.6; minimum inhibitory concentration ([14]; Candida albicans 6): < 0.1; minimum inhibitory concentration ([14]; Candida albicans 7): 3.2; minimum inhibitory concentration ([14]; Candida albicans 8): 0.1; LD50 ([15]; i.m., in CMC): > 3460 mg/kg; LD50 ([15]; i.m., in DOC): 600 mg/kg; LD50 ([15]; i.p., in CMC): 600 mg/kg; LD50 ([15]; i.v., in DOC): 350 mg/kg; LD50 ([15]; p.o., in CMC): > 3000 mg/kg; minimum inhibitory concentration [16]: < 0.1; minimum inhibitory concentration [17]: 0.8; minimum inhibitory concentration [18]: > 100; minimum inhibitory concentration [19]: 0.8; minimum inhibitory concentration [20]: 1.6; minimum inhibitory concentration [21]: 0.8; minimum inhibitory concentration [22]: 3.2; minimum inhibitory concentration [23]: 1.6; minimum inhibitory concentration [24]: > 100; minimum inhibitory concentration [25]: < 0.1
